{"source": "ChEMBL document CHEMBL5038581", "about": "“Design, synthesis, and biological evaluation of novel dual inhibitors targeting lysine specific demethylase 1 (LSD1) and histone deacetylases (HDAC) for treatment of gastric cancer” (Eur J Med Chem, 2021)", "key": {"[1]": {"tested_on": "MGC-803", "experiment": "Induction of apoptosis in human MGC-803 cells assessed as increase in Bax protein expression at 1.25 to 7.5 uM incubated for 48 hrs by western blot analysis", "assay_type": "functional, cell-based", "settings": "dose 1.25-7.5 µM"}, "[2]": {"molecular_target": "T1, Protein deacetylase HDAC6 (Homo sapiens, UniProt Q9UBN7)", "T1 sequence (Q9UBN7 whole entry)": "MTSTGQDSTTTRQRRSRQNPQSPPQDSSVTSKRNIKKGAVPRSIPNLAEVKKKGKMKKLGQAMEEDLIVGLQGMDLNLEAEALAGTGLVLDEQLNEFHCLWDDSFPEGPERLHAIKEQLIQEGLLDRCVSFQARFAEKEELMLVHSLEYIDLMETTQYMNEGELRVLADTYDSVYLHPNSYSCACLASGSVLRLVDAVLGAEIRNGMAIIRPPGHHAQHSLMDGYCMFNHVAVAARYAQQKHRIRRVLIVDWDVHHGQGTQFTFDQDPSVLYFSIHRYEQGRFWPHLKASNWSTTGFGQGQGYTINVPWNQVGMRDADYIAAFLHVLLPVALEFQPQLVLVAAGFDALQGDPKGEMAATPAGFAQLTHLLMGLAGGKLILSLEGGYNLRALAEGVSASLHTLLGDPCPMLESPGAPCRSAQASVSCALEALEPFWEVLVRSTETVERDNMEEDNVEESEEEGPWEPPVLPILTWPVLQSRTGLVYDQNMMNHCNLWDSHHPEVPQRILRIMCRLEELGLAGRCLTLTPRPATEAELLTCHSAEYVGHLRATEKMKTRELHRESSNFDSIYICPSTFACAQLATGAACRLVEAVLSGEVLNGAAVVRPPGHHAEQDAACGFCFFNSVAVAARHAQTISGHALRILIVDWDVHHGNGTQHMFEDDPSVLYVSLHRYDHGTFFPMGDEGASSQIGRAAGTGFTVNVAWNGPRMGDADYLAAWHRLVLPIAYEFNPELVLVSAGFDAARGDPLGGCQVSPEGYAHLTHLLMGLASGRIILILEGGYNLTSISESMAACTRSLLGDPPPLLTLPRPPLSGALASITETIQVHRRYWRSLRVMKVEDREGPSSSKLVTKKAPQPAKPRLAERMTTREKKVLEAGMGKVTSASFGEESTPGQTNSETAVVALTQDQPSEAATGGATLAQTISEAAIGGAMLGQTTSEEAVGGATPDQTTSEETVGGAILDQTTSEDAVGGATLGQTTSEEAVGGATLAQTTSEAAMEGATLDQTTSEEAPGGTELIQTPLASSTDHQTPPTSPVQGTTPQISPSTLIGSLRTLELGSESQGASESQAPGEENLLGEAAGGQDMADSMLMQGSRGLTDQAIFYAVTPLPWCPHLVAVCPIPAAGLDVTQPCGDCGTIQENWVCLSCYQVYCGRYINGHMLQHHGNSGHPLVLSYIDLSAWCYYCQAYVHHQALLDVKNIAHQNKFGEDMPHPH", "experiment": "Inhibition of HDAC6 (unknown origin) using Ac-peptide as substrate preincubated for 15 mins followed by substrate addition by fluorescence assay"}, "[3]": {"experiment": "Metabolic stability in human liver microsomes assessed as half life in presence of NADPH at 1 uM by LC-MS/MS analysis", "assay_type": "ADME, Microsome"}, "[4]": {"molecular_target": "CYP2C9 (Homo sapiens, UniProt P11712)", "sequence (P11712 whole entry)": "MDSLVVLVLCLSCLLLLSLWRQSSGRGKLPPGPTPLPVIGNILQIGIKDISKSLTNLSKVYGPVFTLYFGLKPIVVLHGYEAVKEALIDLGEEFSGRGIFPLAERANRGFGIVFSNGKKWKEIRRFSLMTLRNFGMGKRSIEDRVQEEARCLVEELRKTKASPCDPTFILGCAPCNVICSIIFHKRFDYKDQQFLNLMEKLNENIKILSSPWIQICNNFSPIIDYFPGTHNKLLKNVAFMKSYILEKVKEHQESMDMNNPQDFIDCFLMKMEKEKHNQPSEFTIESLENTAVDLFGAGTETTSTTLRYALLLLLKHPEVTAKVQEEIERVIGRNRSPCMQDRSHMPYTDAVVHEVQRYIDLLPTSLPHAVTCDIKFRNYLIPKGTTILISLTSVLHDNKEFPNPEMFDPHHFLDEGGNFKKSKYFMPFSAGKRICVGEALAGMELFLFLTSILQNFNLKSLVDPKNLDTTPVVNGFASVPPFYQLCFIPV", "experiment": "Inhibition of CYP2C9 (unknown origin) at 10 uM using diclofenac as substrate relative to control", "assay_type": "ADME", "settings": "probe diclofenac"}, "[5]": {"tested_on": "MGC-803", "experiment": "Induction of apoptosis in human MGC-803 cells assessed as apoptotic cells at 5 uM incubated for 48 hrs by annexin V-FITC and PI staining based flowcytometry analysis (Rvb =4.3 %)", "assay_type": "functional"}, "[6]": {"molecular_target": "CYP2D6 (Homo sapiens, UniProt P10635)", "sequence (P10635 whole entry)": "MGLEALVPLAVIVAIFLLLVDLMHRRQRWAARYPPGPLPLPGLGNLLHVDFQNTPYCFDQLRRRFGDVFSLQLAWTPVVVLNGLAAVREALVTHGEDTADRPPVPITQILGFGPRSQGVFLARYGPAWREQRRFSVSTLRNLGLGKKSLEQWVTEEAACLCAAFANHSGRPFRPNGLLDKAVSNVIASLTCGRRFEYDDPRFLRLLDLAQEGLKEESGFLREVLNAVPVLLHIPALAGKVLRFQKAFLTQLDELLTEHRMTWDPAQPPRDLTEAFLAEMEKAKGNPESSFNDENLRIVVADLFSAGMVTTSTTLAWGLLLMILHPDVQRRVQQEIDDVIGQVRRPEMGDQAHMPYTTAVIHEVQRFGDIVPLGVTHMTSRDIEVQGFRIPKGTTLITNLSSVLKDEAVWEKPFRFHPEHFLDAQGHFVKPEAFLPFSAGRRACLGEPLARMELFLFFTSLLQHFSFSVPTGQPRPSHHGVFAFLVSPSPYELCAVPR", "experiment": "Inhibition of CYP2D6 (unknown origin) at 10 uM using dextromethorphan as substrate relative to control", "assay_type": "ADME", "settings": "probe dextromethorphan"}, "[7]": {"experiment": "Metabolic stability in rat liver microsomes assessed as half life in presence of NADPH at 1 uM by LC-MS/MS analysis", "assay_type": "ADME, Microsome"}, "[8]": {"tested_on": "MGC-803", "experiment": "Induction of apoptosis in human MGC-803 cells assessed as decrease in Bcl2 protein expression at 1.25 to 7.5 uM incubated for 48 hrs by western blot analysis", "assay_type": "functional, cell-based", "settings": "dose 1.25-7.5 µM"}, "[9]": {"tested_on": "MGC-803", "experiment": "cells", "settings": "Homo sapiens, MGC-803, 72 h"}, "[10]": {"molecular_target": "Histone deacetylase 5 (Homo sapiens, UniProt Q9UQL6)", "sequence (Q9UQL6 whole entry)": "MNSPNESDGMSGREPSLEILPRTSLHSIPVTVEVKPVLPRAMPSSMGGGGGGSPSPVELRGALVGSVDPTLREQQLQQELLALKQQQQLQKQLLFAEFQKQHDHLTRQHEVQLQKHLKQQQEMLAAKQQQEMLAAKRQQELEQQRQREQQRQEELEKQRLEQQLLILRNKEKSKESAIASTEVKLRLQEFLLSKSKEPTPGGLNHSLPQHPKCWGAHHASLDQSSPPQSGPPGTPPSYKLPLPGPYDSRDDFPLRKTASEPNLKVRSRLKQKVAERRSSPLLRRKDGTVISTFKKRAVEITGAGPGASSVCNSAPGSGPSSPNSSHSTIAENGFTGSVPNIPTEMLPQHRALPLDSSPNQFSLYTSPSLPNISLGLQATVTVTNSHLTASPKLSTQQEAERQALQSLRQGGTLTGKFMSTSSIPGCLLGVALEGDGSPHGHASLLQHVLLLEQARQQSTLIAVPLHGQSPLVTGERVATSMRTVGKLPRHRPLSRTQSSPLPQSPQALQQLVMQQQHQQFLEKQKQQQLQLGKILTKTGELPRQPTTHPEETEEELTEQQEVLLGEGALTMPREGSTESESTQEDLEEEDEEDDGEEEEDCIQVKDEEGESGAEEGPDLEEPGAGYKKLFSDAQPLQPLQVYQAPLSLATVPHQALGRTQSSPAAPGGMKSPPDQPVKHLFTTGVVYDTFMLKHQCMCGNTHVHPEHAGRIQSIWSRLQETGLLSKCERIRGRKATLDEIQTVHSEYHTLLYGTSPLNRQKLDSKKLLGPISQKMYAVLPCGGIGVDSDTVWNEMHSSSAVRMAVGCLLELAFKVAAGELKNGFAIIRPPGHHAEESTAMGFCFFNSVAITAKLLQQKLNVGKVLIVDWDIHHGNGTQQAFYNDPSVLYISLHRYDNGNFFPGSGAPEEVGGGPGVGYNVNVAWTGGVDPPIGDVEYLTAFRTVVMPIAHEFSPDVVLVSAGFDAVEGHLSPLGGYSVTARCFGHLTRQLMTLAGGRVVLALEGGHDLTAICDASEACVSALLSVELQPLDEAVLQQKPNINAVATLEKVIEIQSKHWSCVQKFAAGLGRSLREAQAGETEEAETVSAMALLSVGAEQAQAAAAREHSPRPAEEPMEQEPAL", "experiment": "Inhibition of HDAC5 (unknown origin) using Ac-peptide as substrate preincubated for 15 mins followed by substrate addition by fluorescence assay"}, "[11]": {"molecular_target": "Histone deacetylase 1 (Homo sapiens, UniProt Q13547)", "sequence (Q13547 whole entry)": "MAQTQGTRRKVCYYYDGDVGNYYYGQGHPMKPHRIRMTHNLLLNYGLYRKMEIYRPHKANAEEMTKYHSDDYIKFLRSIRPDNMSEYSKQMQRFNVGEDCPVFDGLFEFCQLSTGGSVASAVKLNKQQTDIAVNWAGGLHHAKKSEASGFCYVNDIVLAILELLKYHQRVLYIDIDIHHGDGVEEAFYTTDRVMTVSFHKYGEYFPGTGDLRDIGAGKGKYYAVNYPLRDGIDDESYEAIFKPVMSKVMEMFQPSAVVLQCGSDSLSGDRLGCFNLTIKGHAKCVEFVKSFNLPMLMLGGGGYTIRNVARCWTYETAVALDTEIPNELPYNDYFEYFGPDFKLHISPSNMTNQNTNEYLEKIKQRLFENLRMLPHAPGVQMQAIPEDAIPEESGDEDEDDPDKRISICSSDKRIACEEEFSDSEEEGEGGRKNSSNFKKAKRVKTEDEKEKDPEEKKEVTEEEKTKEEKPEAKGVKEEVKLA", "experiment": "Inhibition of HDAC1 (unknown origin) using Ac-peptide as substrate preincubated for 15 mins followed by substrate addition by fluorescence assay"}, "[12]": {"molecular_target": "Histone deacetylase 11 (Homo sapiens, UniProt Q96DB2)", "sequence (Q96DB2 whole entry)": "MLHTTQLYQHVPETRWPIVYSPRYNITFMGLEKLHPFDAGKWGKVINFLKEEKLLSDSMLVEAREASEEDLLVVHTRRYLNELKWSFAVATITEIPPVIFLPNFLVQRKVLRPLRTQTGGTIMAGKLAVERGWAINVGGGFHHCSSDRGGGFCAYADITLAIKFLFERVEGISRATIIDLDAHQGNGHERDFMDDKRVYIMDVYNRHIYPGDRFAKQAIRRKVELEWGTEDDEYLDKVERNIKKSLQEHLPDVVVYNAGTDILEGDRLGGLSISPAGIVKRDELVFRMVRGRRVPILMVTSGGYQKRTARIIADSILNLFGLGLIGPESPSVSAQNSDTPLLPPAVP", "experiment": "Inhibition of HDAC11 (unknown origin) using Ac-peptide as substrate preincubated for 15 mins followed by substrate addition by fluorescence based microplate reader analysis"}, "[13]": {"tested_on": "HCT-116", "experiment": "cells", "settings": "Homo sapiens, HCT-116, 72 h"}, "[14]": {"tested_on": "MGC-803", "experiment": "Inhibition of cell migration in human MGC-803 cells 0.2 to 0.8 uM up to 24 hrs by wound healing assay", "assay_type": "functional, cell-based", "settings": "dose 0.2-0.8 µM, time hrs <=24"}, "[15]": {"molecular_target": "T2, CYP1A2 (Homo sapiens, UniProt P05177)", "T2 sequence (P05177 whole entry)": "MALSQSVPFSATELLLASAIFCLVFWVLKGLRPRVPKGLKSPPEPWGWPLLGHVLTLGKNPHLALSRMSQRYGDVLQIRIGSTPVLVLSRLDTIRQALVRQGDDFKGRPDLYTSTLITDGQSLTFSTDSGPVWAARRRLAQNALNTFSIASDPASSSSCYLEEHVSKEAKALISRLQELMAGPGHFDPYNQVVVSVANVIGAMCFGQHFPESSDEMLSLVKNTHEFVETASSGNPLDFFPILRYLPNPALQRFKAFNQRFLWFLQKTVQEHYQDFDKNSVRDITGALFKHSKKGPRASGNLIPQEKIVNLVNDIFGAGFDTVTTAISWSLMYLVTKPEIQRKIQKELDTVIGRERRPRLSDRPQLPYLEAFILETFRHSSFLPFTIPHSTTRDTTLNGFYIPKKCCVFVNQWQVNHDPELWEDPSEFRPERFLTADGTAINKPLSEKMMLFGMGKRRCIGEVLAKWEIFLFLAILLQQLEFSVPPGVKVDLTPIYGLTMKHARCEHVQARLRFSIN", "experiment": "Inhibition of CYP1A2 (unknown origin) at 10 uM using phenacetin as substrate relative to control", "assay_type": "ADME", "settings": "probe phenacetin"}, "[16]": {"molecular_target": "Amine oxidase [flavin-containing] B (Homo sapiens, UniProt P27338)", "sequence (P27338 whole entry)": "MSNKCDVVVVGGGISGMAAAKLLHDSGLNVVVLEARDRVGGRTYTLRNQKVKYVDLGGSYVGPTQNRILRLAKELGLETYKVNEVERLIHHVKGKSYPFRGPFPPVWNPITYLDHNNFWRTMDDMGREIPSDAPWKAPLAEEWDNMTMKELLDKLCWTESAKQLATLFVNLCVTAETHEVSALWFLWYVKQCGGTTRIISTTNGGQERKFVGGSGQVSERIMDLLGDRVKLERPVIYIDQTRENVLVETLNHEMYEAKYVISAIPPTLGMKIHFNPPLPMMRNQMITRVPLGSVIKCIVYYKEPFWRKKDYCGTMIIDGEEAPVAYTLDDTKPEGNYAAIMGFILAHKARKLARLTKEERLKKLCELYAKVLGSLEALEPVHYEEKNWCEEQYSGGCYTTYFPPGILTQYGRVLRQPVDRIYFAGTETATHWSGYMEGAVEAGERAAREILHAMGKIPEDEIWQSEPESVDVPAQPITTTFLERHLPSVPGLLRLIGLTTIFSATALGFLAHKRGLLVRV", "experiment": "Inhibition of human recombinant MAO-B by multimode plate reader assay"}, "[17]": {"tested_on": "MGC-803", "experiment": "Induction of apoptosis in human MGC-803 cells assessed as apoptotic cells at 2.5 uM incubated for 48 hrs by annexin V-FITC and PI staining based flowcytometry analysis (Rvb =4.9 %)", "assay_type": "functional"}, "[18]": {"experiment": "Metabolic stability in human liver microsomes assessed as intrinsic clearance in presence of NADPH at 1 uM by LC-MS/MS analysis", "assay_type": "ADME, Microsome", "settings": "read-out: CLH"}}}
{"smiles": "O=C(NO)c1ccc(/C=C/c2ccnc(-c3ccccc3O)c2)cc1", "values": [{"measurement": "Activity", "setting": "[1]", "result": "Dose-Dependent Effect"}, {"measurement": "IC50", "setting": "[2]", "result": 47, "unit": "nM"}, {"measurement": "half-life at 1 µM", "setting": "[3]", "result": 33, "unit": "min"}, {"measurement": "inhibition at 10 µM", "setting": "[4]", "result": 13.1, "unit": "%"}, {"measurement": "Activity", "setting": "[5]", "result": 71.9, "unit": "%"}, {"measurement": "inhibition at 10 µM", "setting": "[6]", "result": 15, "unit": "%"}, {"measurement": "half-life at 1 µM", "setting": "[7]", "result": 6.9, "unit": "min"}, {"measurement": "Activity", "setting": "[8]", "result": "Dose-Dependent Effect"}, {"measurement": "IC50", "setting": "[9]", "result": 1420, "unit": "nM"}, {"measurement": "IC50", "setting": "[10]", "result": "> 10000", "unit": "nM"}, {"measurement": "IC50", "setting": "[11]", "result": 220, "unit": "nM"}, {"measurement": "IC50", "setting": "[12]", "result": "> 10000", "unit": "nM"}, {"measurement": "IC50", "setting": "[13]", "result": 1450, "unit": "nM"}, {"measurement": "inhibition", "setting": "[14]", "result": "Dose-Dependent Effect"}, {"measurement": "inhibition at 10 µM", "setting": "[15]", "result": 48.4, "unit": "%"}, {"measurement": "IC50", "setting": "[16]", "result": 69400, "unit": "nM"}, {"measurement": "Activity", "setting": "[17]", "result": 33.2, "unit": "%"}, {"measurement": "microsomal CLint at 1 µM", "setting": "[18]", "result": 105, "unit": "µL/min/mg"}]}
{"smiles": "Cc1ccc(-c2cc(/C=C/c3ccc(C(=O)NO)cc3)ccn2)c(F)c1", "values": [{"measurement": "Activity", "setting": "[1]", "result": "Dose-Dependent Effect"}, {"measurement": "IC50", "setting": "[2]", "result": 15, "unit": "nM"}, {"measurement": "half-life at 1 µM", "setting": "[3]", "result": 51.3, "unit": "min"}, {"measurement": "inhibition at 10 µM", "setting": "[4]", "result": 11.7, "unit": "%"}, {"measurement": "Activity", "setting": "[5]", "result": 82.2, "unit": "%"}, {"measurement": "inhibition at 10 µM", "setting": "[6]", "result": 5.8, "unit": "%"}, {"measurement": "half-life at 1 µM", "setting": "[7]", "result": 17.2, "unit": "min"}, {"measurement": "Activity", "setting": "[8]", "result": "Dose-Dependent Effect"}, {"measurement": "IC50", "setting": "[9]", "result": 770, "unit": "nM"}, {"measurement": "IC50", "setting": "[10]", "result": "> 10000", "unit": "nM"}, {"measurement": "IC50", "setting": "[11]", "result": 370, "unit": "nM"}, {"measurement": "IC50", "setting": "[12]", "result": 4930, "unit": "nM"}, {"measurement": "IC50", "setting": "[13]", "result": 800, "unit": "nM"}, {"measurement": "inhibition", "setting": "[14]", "result": "Dose-Dependent Effect"}, {"measurement": "inhibition at 10 µM", "setting": "[15]", "result": 0.95, "unit": "%"}, {"measurement": "IC50", "setting": "[16]", "result": "> 100000", "unit": "nM"}, {"measurement": "Activity", "setting": "[17]", "result": 77.9, "unit": "%"}, {"measurement": "microsomal CLint at 1 µM", "setting": "[18]", "result": 67.4, "unit": "µL/min/mg"}]}
